Data on five cell lines can be found in the supplement of paper PMC10307832.

Holding throughout (assay): relative viability (nuclei count vs DMSO), 5 days (fraction); higher = more cells survive
Compound in the test “Kobe2602 + Crizotinib”: C1=CC(=CC=C1NC(=S)NNC2=C(C=C(C=C2[N+](=O)[O-])C(F)(F)F)[N+](=O)[O-])F [Kobe2602] + C[C@@H](Oc1cc(-c2cnn(C3CCNCC3)c2)cnc1N)c1c(Cl)ccc(F)c1Cl [Crizotinib] (partner 1 µM)
Summed up:
(§1)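 Dosing by pin tool came one day after lung cancer cell lines were seeded in 1536-well plates, using either one drug or a fixed anchor-drug dose plus five library-drug doses (not always all listed) in √10 steps. After 5 days, nuclei were counted on 4× images. Relative viability is treated-well nuclei count divided by vehicle-well nuclei count, and values are medians of duplicate plates.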

Compound in the test “Kobe2602 + Olaparib”: C1=CC(=CC=C1NC(=S)NNC2=C(C=C(C=C2[N+](=O)[O-])C(F)(F)F)[N+](=O)[O-])F [Kobe2602] + O=C(c1cc(Cc2n[nH]c(=O)c3ccccc23)ccc1F)N1CCN(C(=O)C2CC2)CC1 [Olaparib] (partner 8 µM)
Summed up: as §1

Compound in the test “Kobe2602 + Alpelisib”: C1=CC(=CC=C1NC(=S)NNC2=C(C=C(C=C2[N+](=O)[O-])C(F)(F)F)[N+](=O)[O-])F [Kobe2602] + Cc1nc(NC(=O)N2CCC[C@H]2C(N)=O)sc1-c1ccnc(C(C)(C)C(F)(F)F)c1 [Alpelisib] (partner 2 µM)
Summed up:
as §1

Compound in the test “Kobe2602 + Linsitinib”: C1=CC(=CC=C1NC(=S)NNC2=C(C=C(C=C2[N+](=O)[O-])C(F)(F)F)[N+](=O)[O-])F [Kobe2602] + C[C@]1(O)C[C@@H](c2nc(-c3ccc4ccc(-c5ccccc5)nc4c3)c3c(N)nccn32)C1 [Linsitinib] (partner 1 µM)
Put shortly:
as §1

For the cell line LCLC-97TM1, the relative viability worked out at 0.405 with Kobe2602 + Crizotinib (first compound 0.2 µM); 0.336 with Kobe2602 + Crizotinib (first compound 0.6325 µM); 0.242 in the test with Kobe2602 + Crizotinib (first compound 2 µM); 0.372 in the test with Kobe2602 + Crizotinib (first compound 6.325 µM); 0.282 in the test with Kobe2602 + Crizotinib (first compound 20 µM); 0.365 with Kobe2602 + Olaparib (first compound 0.2 µM). Further, the relative viability with Kobe2602 + Olaparib (first compound 0.6325 µM) was 0.416; with Kobe2602 + Olaparib (first compound 6.325 µM), 0.437; with Kobe2602 + Olaparib (first compound 20 µM), 0.383; with Kobe2602 + Alpelisib (first compound 0.2 µM) it was 0.26; with Kobe2602 + Alpelisib (first compound 0.6325 µM), 0.26; with Kobe2602 + Alpelisib (first compound 2 µM), 0.228. Also, the relative viability in the test with Kobe2602 + Alpelisib (first compound 6.325 µM) came out at 0.202; with Kobe2602 + Alpelisib (first compound 20 µM), 0.262; with Kobe2602 + Linsitinib (first compound 0.2 µM), 0.221; with Kobe2602 + Linsitinib (first compound 0.6325 µM), 0.179; with Kobe2602 + Linsitinib (first compound 2 µM), 0.159; with Kobe2602 + Linsitinib (first compound 6.325 µM), 0.196. Also, the relative viability with Kobe2602 + Linsitinib (first compound 20 µM) was found to be 0.202.

In the case of LCLC-103H, the relative viability was found to be 1.04 in the test with Kobe2602 + Crizotinib (first compound 0.2 µM); 1.02 with Kobe2602 + Crizotinib (first compound 0.6325 µM); 1.07 in the test with Kobe2602 + Crizotinib (first compound 2 µM); 1.02 in the test with Kobe2602 + Crizotinib (first compound 6.325 µM); 1.18 in the test with Kobe2602 + Crizotinib (first compound 20 µM); 0.775 with Kobe2602 + Olaparib (first compound 0.2 µM). Also, the relative viability with Kobe2602 + Olaparib (first compound 0.6325 µM) was 0.793; with Kobe2602 + Olaparib (first compound 2 µM) it was 0.804; with Kobe2602 + Olaparib (first compound 6.325 µM) it was 0.762; in the test with Kobe2602 + Olaparib (first compound 20 µM), 0.764; with Kobe2602 + Alpelisib (first compound 0.2 µM) it was 0.897; with Kobe2602 + Alpelisib (first compound 0.6325 µM) it was 0.944. Besides, the relative viability with Kobe2602 + Alpelisib (first compound 2 µM) is 0.961; in the test with Kobe2602 + Alpelisib (first compound 6.325 µM), 1.02; with Kobe2602 + Alpelisib (first compound 20 µM) it was 0.985; in the test with Kobe2602 + Linsitinib (first compound 0.2 µM), 1.05; with Kobe2602 + Linsitinib (first compound 0.6325 µM) it was 1.1; with Kobe2602 + Linsitinib (first compound 2 µM), 1.1. Moreover, the relative viability with Kobe2602 + Linsitinib (first compound 6.325 µM) was 1.09; with Kobe2602 + Linsitinib (first compound 20 µM), 0.984.

Take LK-2: the relative viability with Kobe2602 + Crizotinib (first compound 0.2 µM) was found to be 0.248; in the test with Kobe2602 + Crizotinib (first compound 0.6325 µM), 0.273; in the test with Kobe2602 + Crizotinib (first compound 2 µM) it was 0.231; in the test with Kobe2602 + Crizotinib (first compound 6.325 µM) it was 0.271; with Kobe2602 + Crizotinib (first compound 20 µM) it was 0.257; with Kobe2602 + Olaparib (first compound 0.2 µM), 0.619. Further, the relative viability with Kobe2602 + Olaparib (first compound 0.6325 µM) was determined as 0.766; with Kobe2602 + Olaparib (first compound 2 µM), 0.875; with Kobe2602 + Olaparib (first compound 6.325 µM), 0.596; in the test with Kobe2602 + Olaparib (first compound 20 µM), 0.796; with Kobe2602 + Alpelisib (first compound 0.2 µM), 1.04; with Kobe2602 + Alpelisib (first compound 0.6325 µM) it was 1.2. Moreover, the relative viability in the test with Kobe2602 + Alpelisib (first compound 2 µM) was determined as 1.26; with Kobe2602 + Alpelisib (first compound 6.325 µM) it was 1.07; with Kobe2602 + Alpelisib (first compound 20 µM), 1.04; with Kobe2602 + Linsitinib (first compound 0.2 µM) it was 0.618; with Kobe2602 + Linsitinib (first compound 0.6325 µM), 0.614; with Kobe2602 + Linsitinib (first compound 2 µM) it was 0.415. The relative viability was 0.643 with Kobe2602 + Linsitinib (first compound 6.325 µM) and 0.567 in the test with Kobe2602 + Linsitinib (first compound 20 µM).

On to LOU-NH91, for which the relative viability was found to be 0.736 with Kobe2602 + Crizotinib (first compound 0.2 µM); 0.763 with Kobe2602 + Crizotinib (first compound 0.6325 µM); 0.745 in the test with Kobe2602 + Crizotinib (first compound 2 µM); 0.707 with Kobe2602 + Crizotinib (first compound 6.325 µM); 0.77 in the test with Kobe2602 + Crizotinib (first compound 20 µM); 0.9 with Kobe2602 + Olaparib (first compound 0.2 µM). Moreover, the relative viability in the test with Kobe2602 + Olaparib (first compound 0.6325 µM) stood at 0.922; with Kobe2602 + Olaparib (first compound 2 µM), 0.875; in the test with Kobe2602 + Olaparib (first compound 6.325 µM), 0.917; in the test with Kobe2602 + Olaparib (first compound 20 µM) it was 0.819; with Kobe2602 + Alpelisib (first compound 0.2 µM) it was 0.767; with Kobe2602 + Alpelisib (first compound 0.6325 µM), 0.752. The relative viability in the test with Kobe2602 + Alpelisib (first compound 2 µM) was found to be 0.701; with Kobe2602 + Alpelisib (first compound 6.325 µM), 0.722; with Kobe2602 + Alpelisib (first compound 20 µM), 0.778; in the test with Kobe2602 + Linsitinib (first compound 0.2 µM) it was 0.997; with Kobe2602 + Linsitinib (first compound 0.6325 µM), 0.983; with Kobe2602 + Linsitinib (first compound 2 µM), 1. The relative viability came out at 0.922 in the test with Kobe2602 + Linsitinib (first compound 6.325 µM) and 0.965 in the test with Kobe2602 + Linsitinib (first compound 20 µM).

Turning to NCI-H522, the relative viability in the test with Kobe2602 + Olaparib (first compound 0.2 µM) was 0.66; in the test with Kobe2602 + Olaparib (first compound 0.6325 µM), 0.662; in the test with Kobe2602 + Olaparib (first compound 2 µM), 0.646; in the test with Kobe2602 + Olaparib (first compound 6.325 µM), 0.641; with Kobe2602 + Olaparib (first compound 20 µM) it was 0.598.
